# Measurements published in article PMC8333425, “Discovery of a dual Ras and ARF6 inhibitor from a GPCR endocytosis screen” (Nature Communications, 2021).
# Legend:
# Test in all cases: KINOMEscan kinase binding assay
# [1] = biological target: T1, 384 kinases from the human genome (Homo sapiens, UniProt P78368); details: kinase CSNK1G2 (Entrez CSNK1G2)
# T1 construct: purchased Eurofin/DiscoverX
# Method in brief: (§1)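 A panel of 384 human kinases was profiled by KINOMEscan binding in the presence of 10 µM compound. Kinase–ligand binding was given as percent of DMSO control, averaged from duplicates in a single run, with an S(10) selectivity score.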
# [2] = biological target: T2, 384 kinases from the human genome (Homo sapiens, UniProt P04049); details: kinase RAF1 (Entrez RAF1)
# T2 construct: purchased Eurofin/DiscoverX
# Method in brief: as §1
# [3] = biological target: T3, 384 kinases from the human genome (Homo sapiens, UniProt P42684); details: kinase ABL2 (Entrez ABL2)
# T3 construct: purchased Eurofin/DiscoverX
# Method in brief: as §1
# [4] = biological target: T4, 384 kinases from the human genome (Homo sapiens, UniProt P24941); details: kinase CDK2 (Entrez CDK2)
# T4 construct: purchased Eurofin/DiscoverX
# Method in brief: as §1
# [5] = biological target: T5, 384 kinases from the human genome (Homo sapiens, UniProt Q9HC98); details: kinase NEK6 (Entrez NEK6)
# T5 construct: purchased Eurofin/DiscoverX
# Method in brief: as §1
# [6] = biological target: T6, 384 kinases from the human genome (Homo sapiens, UniProt Q92918); details: kinase HPK1 (Entrez MAP4K1)
# T6 construct: purchased Eurofin/DiscoverX
# Method in brief: as §1
# [7] = biological target: T7, 384 kinases from the human genome (Homo sapiens, UniProt Q15835); details: kinase GRK1 (Entrez GRK1)
# T7 construct: purchased Eurofin/DiscoverX
# Method in brief: as §1
# [8] = biological target: T8, 384 kinases from the human genome (Homo sapiens, UniProt P07947); details: kinase YES (Entrez YES1)
# T8 construct: purchased Eurofin/DiscoverX
# Method in brief: as §1
# [9] = biological target: T9, 384 kinases from the human genome (Homo sapiens, UniProt Q13177); details: kinase PAK2 (Entrez PAK2)
# T9 construct: purchased Eurofin/DiscoverX
# Method in brief: as §1
# [10] = biological target: T10, 384 kinases from the human genome (Homo sapiens, UniProt Q96Q40); details: kinase PFTAIRE2 (Entrez CDK15)
# T10 construct: purchased Eurofin/DiscoverX
# Method in brief: as §1
# [11] = biological target: T11, 384 kinases from the human genome (Homo sapiens, UniProt P49336); details: kinase CDK8 (Entrez CDK8)
# T11 construct: purchased Eurofin/DiscoverX
# Method in brief: as §1
# [12] = biological target: T12, 384 kinases from the human genome (Homo sapiens, UniProt P53779); details: kinase JNK3 (Entrez MAPK10)
# T12 construct: purchased Eurofin/DiscoverX
# Method in brief: as §1
# [13] = biological target: T13, 384 kinases from the human genome (Homo sapiens, UniProt P49840); details: kinase GSK3A (Entrez GSK3A)
# T13 construct: purchased Eurofin/DiscoverX
# Method in brief: as §1
# [14] = biological target: T14, 384 kinases from the human genome (Homo sapiens, UniProt Q13976); details: kinase PRKG1 (Entrez PRKG1)
# T14 construct: purchased Eurofin/DiscoverX
# Method in brief: as §1
# [15] = system: 384 kinases from the human genome; details: 10 µM of 21
# Method in brief: as §1
# [16] = biological target: T15, 384 kinases from the human genome (Homo sapiens, UniProt Q16620); details: kinase TRKB (Entrez NTRK2)
# T15 construct: purchased Eurofin/DiscoverX
# Method in brief: as §1
# [17] = biological target: T16, 384 kinases from the human genome (Homo sapiens, UniProt Q86YV6); details: kinase MYLK4 (Entrez MYLK4)
# T16 construct: purchased Eurofin/DiscoverX
# Method in brief: as §1
# [18] = biological target: T17, 384 kinases from the human genome (Homo sapiens, UniProt O14578); details: kinase CIT (Entrez CIT)
# T17 construct: purchased Eurofin/DiscoverX
# Method in brief: as §1
# [19] = biological target: T18, 384 kinases from the human genome (Homo sapiens, UniProt P42681); details: kinase TXK (Entrez TXK)
# T18 construct: purchased Eurofin/DiscoverX
# Method in brief: as §1
# [20] = biological target: T19, 384 kinases from the human genome (Homo sapiens, UniProt Q8NEB9); details: kinase VPS34 (Entrez PIK3C3)
# T19 construct: purchased Eurofin/DiscoverX
# Method in brief: as §1
# [21] = biological target: T20, 384 kinases from the human genome (Homo sapiens, UniProt Q86V86); details: kinase PIM3 (Entrez PIM3)
# T20 construct: purchased Eurofin/DiscoverX
# Method in brief: as §1
# [22] = biological target: T21, 384 kinases from the human genome (Homo sapiens, UniProt P53778); details: kinase p38-gamma (Entrez MAPK12)
# T21 construct: purchased Eurofin/DiscoverX
# Method in brief: as §1
# [23] = biological target: T22, 384 kinases from the human genome (Homo sapiens, UniProt Q52WX2); details: kinase SBK1 (Entrez SBK1)
# T22 construct: purchased Eurofin/DiscoverX
# Method in brief: as §1
# [24] = biological target: T23, 384 kinases from the human genome (Homo sapiens, UniProt P49759); details: kinase CLK1 (Entrez CLK1)
# T23 construct: purchased Eurofin/DiscoverX
# Method in brief: as §1
# [25] = biological target: T24, 384 kinases from the human genome (Homo sapiens, UniProt Q9UKE5); details: kinase TNIK (Entrez TNIK)
# T24 construct: purchased Eurofin/DiscoverX
# Method in brief: as §1
# [26] = biological target: T25, 384 kinases from the human genome (Homo sapiens, UniProt P07333)
# T25 construct: purchased Eurofin/DiscoverX
# Method in brief: as §1
# T25 sequence (P07333 20-972): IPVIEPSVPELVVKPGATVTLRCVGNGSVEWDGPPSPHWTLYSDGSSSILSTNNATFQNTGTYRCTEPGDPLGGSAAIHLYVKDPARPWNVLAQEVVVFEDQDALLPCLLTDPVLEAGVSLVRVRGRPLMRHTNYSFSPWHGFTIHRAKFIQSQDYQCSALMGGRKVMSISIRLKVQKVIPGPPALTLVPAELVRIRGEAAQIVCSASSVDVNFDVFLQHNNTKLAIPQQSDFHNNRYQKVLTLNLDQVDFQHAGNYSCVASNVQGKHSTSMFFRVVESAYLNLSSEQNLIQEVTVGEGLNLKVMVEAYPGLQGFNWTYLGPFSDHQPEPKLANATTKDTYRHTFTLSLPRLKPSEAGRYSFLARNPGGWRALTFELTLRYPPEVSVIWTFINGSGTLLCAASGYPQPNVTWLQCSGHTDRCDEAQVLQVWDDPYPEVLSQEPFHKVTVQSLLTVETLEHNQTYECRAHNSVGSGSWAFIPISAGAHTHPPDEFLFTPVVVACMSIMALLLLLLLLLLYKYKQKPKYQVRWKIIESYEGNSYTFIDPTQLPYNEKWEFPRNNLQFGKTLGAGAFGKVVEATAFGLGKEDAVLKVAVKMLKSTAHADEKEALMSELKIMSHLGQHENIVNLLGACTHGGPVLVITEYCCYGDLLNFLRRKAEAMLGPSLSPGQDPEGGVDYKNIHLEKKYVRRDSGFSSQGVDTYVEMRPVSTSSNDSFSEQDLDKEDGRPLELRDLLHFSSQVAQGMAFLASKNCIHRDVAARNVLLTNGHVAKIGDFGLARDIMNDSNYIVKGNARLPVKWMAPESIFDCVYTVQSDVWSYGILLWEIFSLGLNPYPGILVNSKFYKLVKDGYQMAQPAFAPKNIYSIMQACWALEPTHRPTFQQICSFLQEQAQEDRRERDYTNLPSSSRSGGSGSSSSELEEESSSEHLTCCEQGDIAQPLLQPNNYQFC
# T10 sequence (Q96Q40 whole entry): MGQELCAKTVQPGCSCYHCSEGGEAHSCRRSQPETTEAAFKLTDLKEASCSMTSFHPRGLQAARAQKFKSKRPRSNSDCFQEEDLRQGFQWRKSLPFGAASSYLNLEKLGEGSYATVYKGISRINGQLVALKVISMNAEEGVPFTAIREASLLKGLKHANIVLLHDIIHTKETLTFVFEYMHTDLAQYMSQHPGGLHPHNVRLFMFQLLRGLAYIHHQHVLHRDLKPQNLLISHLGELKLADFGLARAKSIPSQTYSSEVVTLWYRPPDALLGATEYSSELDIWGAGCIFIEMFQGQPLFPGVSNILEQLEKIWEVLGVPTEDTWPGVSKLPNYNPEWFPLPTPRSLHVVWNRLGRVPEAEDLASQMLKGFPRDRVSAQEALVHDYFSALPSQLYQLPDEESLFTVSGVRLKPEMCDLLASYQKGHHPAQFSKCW
# T19 sequence (Q8NEB9 whole entry): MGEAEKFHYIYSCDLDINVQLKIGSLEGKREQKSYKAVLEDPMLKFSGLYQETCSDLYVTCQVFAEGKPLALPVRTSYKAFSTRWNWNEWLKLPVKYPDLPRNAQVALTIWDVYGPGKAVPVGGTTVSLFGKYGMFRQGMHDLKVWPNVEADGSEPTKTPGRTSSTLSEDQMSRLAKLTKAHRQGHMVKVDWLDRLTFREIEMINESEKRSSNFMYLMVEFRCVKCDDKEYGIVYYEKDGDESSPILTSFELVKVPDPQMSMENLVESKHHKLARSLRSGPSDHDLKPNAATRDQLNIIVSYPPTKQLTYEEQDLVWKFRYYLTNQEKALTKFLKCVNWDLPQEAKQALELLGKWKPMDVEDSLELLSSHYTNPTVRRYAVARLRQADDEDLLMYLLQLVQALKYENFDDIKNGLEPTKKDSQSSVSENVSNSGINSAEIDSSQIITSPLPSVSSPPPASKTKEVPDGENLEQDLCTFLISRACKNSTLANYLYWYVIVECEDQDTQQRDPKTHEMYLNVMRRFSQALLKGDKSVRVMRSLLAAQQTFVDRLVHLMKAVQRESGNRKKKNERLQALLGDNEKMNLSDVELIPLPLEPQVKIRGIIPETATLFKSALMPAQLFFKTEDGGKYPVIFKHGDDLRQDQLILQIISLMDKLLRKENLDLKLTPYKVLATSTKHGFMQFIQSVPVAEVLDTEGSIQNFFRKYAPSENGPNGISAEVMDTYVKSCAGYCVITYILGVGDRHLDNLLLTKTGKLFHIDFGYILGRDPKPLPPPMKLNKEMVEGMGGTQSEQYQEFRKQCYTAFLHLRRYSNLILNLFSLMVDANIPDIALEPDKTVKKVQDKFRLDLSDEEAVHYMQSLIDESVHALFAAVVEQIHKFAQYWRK
# T7 sequence (Q15835 whole entry): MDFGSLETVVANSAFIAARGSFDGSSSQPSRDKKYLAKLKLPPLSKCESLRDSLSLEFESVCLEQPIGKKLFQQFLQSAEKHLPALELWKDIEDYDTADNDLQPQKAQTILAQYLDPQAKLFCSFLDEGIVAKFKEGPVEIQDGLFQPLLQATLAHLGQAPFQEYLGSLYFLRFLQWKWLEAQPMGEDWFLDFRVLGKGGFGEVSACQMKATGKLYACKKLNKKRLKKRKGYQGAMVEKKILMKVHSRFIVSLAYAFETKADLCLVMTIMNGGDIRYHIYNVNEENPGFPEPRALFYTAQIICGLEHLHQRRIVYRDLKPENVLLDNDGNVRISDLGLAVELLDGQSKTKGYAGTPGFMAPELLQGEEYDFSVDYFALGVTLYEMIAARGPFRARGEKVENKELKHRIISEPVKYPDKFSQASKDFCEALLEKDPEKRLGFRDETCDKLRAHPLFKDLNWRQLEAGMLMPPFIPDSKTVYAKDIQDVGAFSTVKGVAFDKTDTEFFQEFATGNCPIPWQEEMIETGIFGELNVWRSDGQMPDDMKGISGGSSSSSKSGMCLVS
# T3 sequence (P42684 whole entry): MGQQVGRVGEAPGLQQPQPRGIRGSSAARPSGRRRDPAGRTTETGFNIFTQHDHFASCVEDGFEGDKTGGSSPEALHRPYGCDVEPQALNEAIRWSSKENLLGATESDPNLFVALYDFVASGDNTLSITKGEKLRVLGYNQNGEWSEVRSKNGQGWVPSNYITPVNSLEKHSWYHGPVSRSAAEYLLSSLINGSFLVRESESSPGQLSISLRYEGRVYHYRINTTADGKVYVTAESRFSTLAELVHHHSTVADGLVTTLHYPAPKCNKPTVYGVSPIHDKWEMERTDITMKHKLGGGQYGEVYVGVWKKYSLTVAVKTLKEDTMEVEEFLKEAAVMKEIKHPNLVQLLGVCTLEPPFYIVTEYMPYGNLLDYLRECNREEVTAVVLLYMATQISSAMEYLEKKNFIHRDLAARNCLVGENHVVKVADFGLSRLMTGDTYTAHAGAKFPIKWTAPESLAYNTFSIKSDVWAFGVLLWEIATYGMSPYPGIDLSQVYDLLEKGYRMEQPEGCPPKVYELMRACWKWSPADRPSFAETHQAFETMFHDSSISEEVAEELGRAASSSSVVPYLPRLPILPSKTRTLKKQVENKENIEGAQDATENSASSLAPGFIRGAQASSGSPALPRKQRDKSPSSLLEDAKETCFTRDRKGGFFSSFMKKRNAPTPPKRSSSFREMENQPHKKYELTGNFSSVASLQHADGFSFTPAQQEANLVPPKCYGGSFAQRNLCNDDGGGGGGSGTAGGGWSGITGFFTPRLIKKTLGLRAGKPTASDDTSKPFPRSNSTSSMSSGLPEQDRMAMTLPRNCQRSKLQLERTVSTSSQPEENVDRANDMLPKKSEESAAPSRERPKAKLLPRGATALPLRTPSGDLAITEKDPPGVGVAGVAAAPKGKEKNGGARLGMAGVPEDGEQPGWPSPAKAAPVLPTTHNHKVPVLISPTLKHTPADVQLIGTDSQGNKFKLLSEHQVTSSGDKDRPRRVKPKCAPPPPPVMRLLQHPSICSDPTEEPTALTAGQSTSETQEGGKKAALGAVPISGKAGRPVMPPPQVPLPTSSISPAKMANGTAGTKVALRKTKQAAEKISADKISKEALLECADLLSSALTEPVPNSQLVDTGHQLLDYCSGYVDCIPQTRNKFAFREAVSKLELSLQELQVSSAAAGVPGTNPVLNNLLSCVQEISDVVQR
# T11 sequence (P49336 whole entry): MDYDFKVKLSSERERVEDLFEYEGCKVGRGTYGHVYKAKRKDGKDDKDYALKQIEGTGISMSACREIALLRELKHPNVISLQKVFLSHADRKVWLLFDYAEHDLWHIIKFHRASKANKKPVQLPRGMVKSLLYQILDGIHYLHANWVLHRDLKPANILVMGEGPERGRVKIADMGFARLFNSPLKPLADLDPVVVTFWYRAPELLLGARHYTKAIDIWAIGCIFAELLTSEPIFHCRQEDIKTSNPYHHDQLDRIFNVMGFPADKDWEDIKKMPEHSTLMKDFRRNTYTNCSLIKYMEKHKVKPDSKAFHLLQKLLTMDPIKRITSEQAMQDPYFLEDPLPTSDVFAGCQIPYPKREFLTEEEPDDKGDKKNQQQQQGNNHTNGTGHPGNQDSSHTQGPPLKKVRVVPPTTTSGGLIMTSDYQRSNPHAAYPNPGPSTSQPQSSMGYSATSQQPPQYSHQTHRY
# T16 sequence (Q86YV6 whole entry): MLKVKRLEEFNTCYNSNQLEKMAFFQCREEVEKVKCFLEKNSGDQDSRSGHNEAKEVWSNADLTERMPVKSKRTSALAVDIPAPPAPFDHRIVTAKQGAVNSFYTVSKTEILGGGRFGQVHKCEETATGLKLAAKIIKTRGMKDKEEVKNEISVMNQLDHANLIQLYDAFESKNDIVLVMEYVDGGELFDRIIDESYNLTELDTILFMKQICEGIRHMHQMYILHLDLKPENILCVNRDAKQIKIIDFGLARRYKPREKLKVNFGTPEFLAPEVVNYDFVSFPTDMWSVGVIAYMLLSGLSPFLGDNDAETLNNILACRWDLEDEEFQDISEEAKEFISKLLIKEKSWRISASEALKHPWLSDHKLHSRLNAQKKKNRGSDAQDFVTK
compound,measurement,setting,value
CC(C)C(=O)N1CCN(c2ccc(NC(=O)c3cc4ccccc4o3)cc2Cl)CC1 [Compound 21],Percent Control,[1],92%
same,Percent Control,[2],79%
same,Percent Control,[3],91%
same,Percent Control,[4],100%
same,Percent Control,[5],94%
same,Percent Control,[6],75%
same,Percent Control,[7],94%
same,Percent Control,[8],89%
same,Percent Control,[9],100%
same,Percent Control,[10],100%
same,Percent Control,[11],100%
same,Percent Control,[12],75%
same,Percent Control,[13],92%
same,Percent Control,[14],96%
same,binding to ERK subtypes,[15],failed to bind
same,binding to MEK subtypes,[15],failed to bind
same,binding to PI3K subtypes,[15],failed to bind
same,binding to different Akt subtypes,[15],failed to bind
same,Percent Control,[16],55%
same,Percent Control,[17],99%
same,Percent Control,[18],75%
same,Percent Control,[19],76%
same,Percent Control,[20],100%
same,Percent Control,[21],90%
same,Percent Control,[22],100%
same,Percent Control,[23],100%
same,Percent Control,[24],98%
same,Percent Control,[25],57%
same,Percent Control,[26]; kinase CSF1R (Entrez CSF1R),73%
same,Percent Control,[26]; kinase CSF1R-autoinhibited (Entrez CSF1R),100%
